Laboratory results from patent US20100041089A1, “IMPROVED METHOD FOR DETECTING CHEMICAL […]” (priority 2006, published 2010).

Test system: yeast genes (expressed mRNA)
Experiment: DNA chip measurement of expressed mRNA of yeast genes after culture with a toxic chemical substance
Format: cell-based, Saccharomyces cerevisiae S288C
Conditions: for level of expressed mRNA in the presence of chemical substance / level in the absence of chemical substance: cultured two hours with the chemical substance; for The level of expressed mRNA in the presence of chemical substance/The level of expressed mRNA in the absence of chemical substance: cultured two hours with substance
Summary of the method: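 S. cerevisiae S288C grown at 25 °C in YPD, exposed in log phase for 2 h to a toxicant at growth-inhibiting, non-lethal concentration. Cy3/Cy5-labelled cDNA from poly(A) mRNA hybridized to whole-genome chip at 65 °C >12 h. Ratio to untreated control, ≥2 significant.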

Substance: Manganese ethylenebis(dithiocarbamate) [(8)]
- level of expressed mRNA in the presence of chemical substance / level in the absence of chemical substance (yeast gene YDR128W): 1.1
- level of expressed mRNA in the presence of chemical substance / level in the absence of chemical substance (yeast gene YDR133C): 0.5
- level of expressed mRNA in the presence of chemical substance / level in the absence of chemical substance (yeast gene YDR250C): 1.1
- level of expressed mRNA in the presence of chemical substance / level in the absence of chemical substance (yeast gene YDR278C): 0.5
- level of expressed mRNA in the presence of chemical substance / level in the absence of chemical substance (yeast gene YDR281C): 1.2
- The level of expressed mRNA in the presence of chemical substance/The level of expressed mRNA in the absence of chemical substance (yeast gene YDR330W): 1.1
- level of expressed mRNA in the presence of chemical substance / level in the absence of chemical substance (yeast gene YDR366C): 1.1
- The level of expressed mRNA in the presence of chemical substance/The level of expressed mRNA in the absence of chemical substance (yeast gene YDR411C): 0.9
- The level of expressed mRNA in the presence of chemical substance/The level of expressed mRNA in the absence of chemical substance (yeast gene YDR511W): 1.7
- The level of expressed mRNA in the presence of chemical substance/The level of expressed mRNA in the absence of chemical substance (yeast gene YDR545W): 0.6
- The level of expressed mRNA in the presence of chemical substance/The level of expressed mRNA in the absence of chemical substance (yeast gene YEL001C): 1.2
- The level of expressed mRNA in the presence of chemical substance/The level of expressed mRNA in the absence of chemical substance (yeast gene YER004W): 1.1
- The level of expressed mRNA in the presence of chemical substance/The level of expressed mRNA in the absence of chemical substance (yeast gene YER035W): 1.2
- The level of expressed mRNA in the presence of chemical substance/The level of expressed mRNA in the absence of chemical substance (yeast gene YER079W): 1.4
- The level of expressed mRNA in the presence of chemical substance/The level of expressed mRNA in the absence of chemical substance (yeast gene YER106W): 1.2
- The level of expressed mRNA in the presence of chemical substance/The level of expressed mRNA in the absence of chemical substance (yeast gene YER158C): 0.9
- The level of expressed mRNA in the presence of chemical substance/The level of expressed mRNA in the absence of chemical substance (yeast gene YER163C): 1.4
- The level of expressed mRNA in the presence of chemical substance/The level of expressed mRNA in the absence of chemical substance (yeast gene YER175C): 1.1
- The level of expressed mRNA in the presence of chemical substance/The level of expressed mRNA in the absence of chemical substance (yeast gene YFL006W): 1.0
- The level of expressed mRNA in the presence of chemical substance/The level of expressed mRNA in the absence of chemical substance (yeast gene YFL010C): 1.0
- The level of expressed mRNA in the presence of chemical substance/The level of expressed mRNA in the absence of chemical substance (yeast gene YFL024C): 0.9
- The level of expressed mRNA in the presence of chemical substance/The level of expressed mRNA in the absence of chemical substance (yeast gene YFL032W): 0.4
- level of expressed mRNA in the presence of chemical substance / level in the absence of chemical substance (yeast gene YFR026C): 1.3
- The level of expressed mRNA in the presence of chemical substance/The level of expressed mRNA in the absence of chemical substance (yeast gene YGL037C): 1.2
- The level of expressed mRNA in the presence of chemical substance/The level of expressed mRNA in the absence of chemical substance (yeast gene YGL047W): 1.1
- The level of expressed mRNA in the presence of chemical substance/The level of expressed mRNA in the absence of chemical substance (yeast gene YGL053W): 1.2
- level of expressed mRNA in the presence of chemical substance / level in the absence of chemical substance (yeast gene YGL088W): 0.5
- The level of expressed mRNA in the presence of chemical substance/The level of expressed mRNA in the absence of chemical substance (yeast gene YGL121C): 3.0
- The level of expressed mRNA in the presence of chemical substance/The level of expressed mRNA in the absence of chemical substance (yeast gene YGL199C): 0.7
- level of expressed mRNA in the presence of chemical substance / level in the absence of chemical substance (yeast gene YGR038W): 0.7
- The level of expressed mRNA in the presence of chemical substance/The level of expressed mRNA in the absence of chemical substance (yeast gene YGR101W): 0.8
- The level of expressed mRNA in the presence of chemical substance/The level of expressed mRNA in the absence of chemical substance (yeast gene YGR110W): 1.5
- The level of expressed mRNA in the presence of chemical substance/The level of expressed mRNA in the absence of chemical substance (yeast gene YGR130C): 0.9
- level of expressed mRNA in the presence of chemical substance / level in the absence of chemical substance (yeast gene YGR139W): 0.6
- The level of expressed mRNA in the presence of chemical substance/The level of expressed mRNA in the absence of chemical substance (yeast gene YGR154C): 1.7
- The level of expressed mRNA in the presence of chemical substance/The level of expressed mRNA in the absence of chemical substance (yeast gene YGR221C): 1.1
- level of expressed mRNA in the presence of chemical substance / level in the absence of chemical substance (yeast gene YGR243W): 1.3
- level of expressed mRNA in the presence of chemical substance / level in the absence of chemical substance (yeast gene YGR293C): 1.3
- level of expressed mRNA in the presence of chemical substance / level in the absence of chemical substance (yeast gene YHL006C): 1.1
- level of expressed mRNA in the presence of chemical substance / level in the absence of chemical substance (yeast gene YHR095W): 1.0
- level of expressed mRNA in the presence of chemical substance / level in the absence of chemical substance (yeast gene YHR105W): 1.0
- The level of expressed mRNA in the presence of chemical substance/The level of expressed mRNA in the absence of chemical substance (yeast gene YHR138C): 1.4
- level of expressed mRNA in the presence of chemical substance / level in the absence of chemical substance (yeast gene YHR181W): 0.9
- The level of expressed mRNA in the presence of chemical substance/The level of expressed mRNA in the absence of chemical substance (yeast gene YHR199C): 1.0
- The level of expressed mRNA in the presence of chemical substance/The level of expressed mRNA in the absence of chemical substance (yeast gene YIL023C): 0.7
- The level of expressed mRNA in the presence of chemical substance/The level of expressed mRNA in the absence of chemical substance (yeast gene YIL041W): 0.9
- The level of expressed mRNA in the presence of chemical substance/The level of expressed mRNA in the absence of chemical substance (yeast gene YIL087C): 1.1
- level of expressed mRNA in the presence of chemical substance / level in the absence of chemical substance (yeast gene YIL127C): 1.2
- level of expressed mRNA in the presence of chemical substance / level in the absence of chemical substance (yeast gene YJL017W): 1.0
- level of expressed mRNA in the presence of chemical substance / level in the absence of chemical substance (yeast gene YJL037W): 1.2
- The level of expressed mRNA in the presence of chemical substance/The level of expressed mRNA in the absence of chemical substance (yeast gene YJL057C): 1.5
- The level of expressed mRNA in the presence of chemical substance/The level of expressed mRNA in the absence of chemical substance (yeast gene YJL066C): 0.8
- The level of expressed mRNA in the presence of chemical substance/The level of expressed mRNA in the absence of chemical substance (yeast gene YJL082W): 0.9
